From article PMC6135860 (Neuropsychopharmacology, 2018) come the findings set out here.

Read-outs that look alike come from different tables or passages of the source.

Data set [1] deals with humanized PDE4D mice. The experiment in a line: Y-maze spontaneous alternation test. In kind it is in vivo, mouse. To be noted: humanized PDE4D mice, oral gavage 1 h prior to test.
Method: (§3) The test consists of a single 5 min trial, in which the mouse was allowed to explore all three arms of the Y-maze [31]. Spontaneous alternation (%) was defined as consecutive entries in three different arms, divided by the number of possible alternations (total arm entries minus 2).
(§4) Y-maze spontaneous alternation test. The Y-maze apparatus made of matt blue Plexiglas had three identical arms (L 40 cm, W 5 cm, H 15 cm) placed at 120° from each other. The test consisted of a single 5 min trial, in which the mouse was allowed to explore all three arms of the Y-maze. The start arm was varied between animals to avoid placement bias. Spontaneous Alternation (%) was defined as consecutive entries in 3 different arms, divided by the number of possible alternations (total arm entries minus 2). Mice with less than 8 arm entries during the 5-min trial were excluded from the analysis.
The target of data set [2] is PDE4 binding sites in wild-type mouse brain membranes. The experiment in a line: [3H]-rolipram radioligand binding to brain membranes. To be noted: wild-type.
Method: Mice were killed by decapitation, and the brains were immediately dissected on ice and homogenized in binding buffer using a Polytron homogenizer (Brinkman Instruments, Westbury, NY). The membrane fraction of the homogenate was obtained by centrifugation at 15,000 × g for 15 min, and resuspension of the pellet in the binding buffer.
Mice were killed by decapitation, and the brains were immediately dissected on ice and homogenized in binding buffer (50 mM Tris-HCl, 5 mM MgCl2, pH 7.5) using a Polytron homogenizer (Brinkman Instruments, Westbury, NY). The membrane fraction of the homogenate was obtained by centrifugation at 15,000 g for 15 min, and resuspension of the pellet in the binding buffer^29.
At the end of the incubation, reactions were stopped by adding 5 ml of the ice-cold binding buffer and rapid vacuum filtration through glass fiber filters that had been soaked in 0.3% polyethyleneimine. The filters were then washed twice with 5 ml of the ice-cold binding buffer, and discs of filter paper were collected for measurement of radioactivity by liquid scintillation counting.
The test system of data set [3] is brain cAMP, wild-type mice. The experiment in a line: Brain cAMP ELISA after oral dosing. In kind it is in vivo, mouse. The protocol: (§1) On the day of assay, frozen brain samples were analyzed using the cAMP complete ELISA kit (Enzo Life Sciences, Farmingdale, NY) according to the assay protocol.
(§2) Concentrations of cAMP in mouse brain samples were measured using an enzyme-linked immunosorbent assay (ELISA). The mice were treated with various doses of BPN-14770 or vehicle. 1 h after dosing, mice were killed by rapid decapitation, and brains were immediately were dissected on ice, flash frozen in liquid nitrogen, and stored at -80 ̊C. On the day of assay, brain samples (one hemisphere) were ground to a fine powder under liquid nitrogen in a stainless steel mortar, followed by addition of 10 volumes of 0.1 M HCl. Tissue homogenates were then centrifuged at 800ˣg for 15 min. Supernatants were collected for immediate assay or stored frozen for assay later using the cAMP complete ELISA kit (Enzo Life Sciences, Farmingdale, NY) according to the assay protocol ^66.

Data set [4] has as its system brain cAMP, humanized PDE4D mice. The experiment in a line: Brain cAMP ELISA after oral dosing. It is filed as in vivo, mouse. How it is done: as §1, §2
Data set [5] addresses T1, humanized mouse PDE4D7 dimer S129D(PKA), Y271F(UCR2) (Mus musculus, UniProt Q01063, S129D/Y271F).
T1 construct: hexahistidine; Proteos Inc; host or cells: Baculovirus-infected Sf9 insect cells
T1 sequence (Q01063 1-747 S129D/Y271F): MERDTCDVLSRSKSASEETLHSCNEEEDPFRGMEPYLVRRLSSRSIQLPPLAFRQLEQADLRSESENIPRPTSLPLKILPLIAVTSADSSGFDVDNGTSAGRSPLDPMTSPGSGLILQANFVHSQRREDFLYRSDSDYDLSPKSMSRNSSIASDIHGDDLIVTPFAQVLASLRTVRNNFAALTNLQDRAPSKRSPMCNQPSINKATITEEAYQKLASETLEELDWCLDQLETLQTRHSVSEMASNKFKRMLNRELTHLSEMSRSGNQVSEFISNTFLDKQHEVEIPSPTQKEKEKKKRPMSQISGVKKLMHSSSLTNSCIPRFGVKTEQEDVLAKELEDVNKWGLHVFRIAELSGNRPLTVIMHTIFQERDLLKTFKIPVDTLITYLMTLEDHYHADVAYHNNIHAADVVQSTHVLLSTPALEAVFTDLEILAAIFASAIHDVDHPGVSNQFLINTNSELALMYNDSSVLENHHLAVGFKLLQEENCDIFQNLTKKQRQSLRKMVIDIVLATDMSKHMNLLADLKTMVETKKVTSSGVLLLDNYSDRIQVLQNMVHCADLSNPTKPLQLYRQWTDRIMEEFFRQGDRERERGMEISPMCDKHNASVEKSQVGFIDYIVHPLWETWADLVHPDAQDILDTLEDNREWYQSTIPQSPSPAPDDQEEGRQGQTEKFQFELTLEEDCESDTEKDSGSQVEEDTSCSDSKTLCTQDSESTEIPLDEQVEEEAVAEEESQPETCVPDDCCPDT
The experiment in a line: biochemical. It is filed as biochemical.
Method: Kinetic assay of cAMP hydrolysis by purified PDE4 enzymes is measured by coupling the formation of the PDE4 reaction product 5′-adenosine monophosphate (AMP) to the oxidation of reduced nicotinamide adenine dinucleotide (NADH). This is accomplished with three coupling enzymes (yeast myokinase, pyruvate kinase, and lactate dehydrogenase), and allows fluorescent determination of reaction rates [19]. To measure inhibition of PDE4 enzymes by test compounds, data were percent normalized relative to controls and are presented as percent inhibition.
Kinetic assay of cAMP hydrolysis by purified PDE4 enzymes is measured by coupling the formation of the PDE4 reaction product 5′-adenosine monophosphate (AMP) to the oxidation of reduced nicotinamide adenine dinucleotide (NADH). This is accomplished with three coupling enzymes (yeast myokinase, pyruvate kinase, and lactate dehydrogenase), and allows fluorescent determination of reaction rates.^19 Assays were performed in 96-well plates in a total volume of 200 μl/well. Compounds were dissolved in dimethylsulfoxide (DMSO) and added to plates in a volume of 10 μl followed by addition of 165 μl of assay mix. Plates were pre-incubated at 25 °C for 10 min. The enzyme reaction was initiated by the addition of 25 μl of cAMP followed by thorough mixing. […] Initial rates (slopes) were determined from linear portions of the progress curves. […]

The subject of data set [6] is wild-type mice. The experiment in a line: Y-maze spontaneous alternation test. In kind it is in vivo, mouse. To be noted: oral gavage 1 h prior to test.
Method: as §3, §4
Data set [7] can be described thus: Pharmacokinetics and plasma exposure in mice.

As to `O=C(O)Cc1ccc(Cc2cc(-c3cccc(Cl)c3)nc(C(F)(F)F)c2)cc1` [BPN14770], the “MED for improved % alternation in Y-maze” value in data set [1] amounted to 0.01 mg/kg; in data set [6], 1 mg/kg. The Ki turned out to be 124 ± 14.1 nM in data set [2] (inhibition of 2 nM [3H]-rolipram binding, read-out: One-site Ki); 79.7 ± 17.1 nM in data set [2] (inhibition of [3H]-rolipram binding, read-out: Two-site Ki1); 622 ± 110 nM in data set [2] (inhibition of [3H]-rolipram binding, read-out: Two-site Ki2). Besides, the “effect on brain cAMP” value in data set [3] (0.3 mg/kg PO) is “ineffective”. Moreover, the “minimum effective dose (MED) for increase in brain cAMP” value in data set [3] (1 h after oral dose) turned out to be 1 mg/kg PO; in data set [4] (humanized mice, 1 h after oral dose), 0.1 mg/kg PO. Also, in data set [4] (humanized PDE4D mice, 0.3 mg/kg PO), the “increase in brain cAMP” value is “almost three-fold”. In addition, the “increase in potency by mutation of mouse UCR2 tyrosine 271 to phenylalanine” value in data set [5] (Y271F versus wild-type mouse PDE4D7) worked out at 46 fold. This compound also yielded an IC50 in data set [5] (mouse PDE4D7 dimer, S129D, Y271F (humanized UCR2)) of 2.9 ± 0.3 nM. The “plasma exposure at the NOAEL” value in data set [7] (1 mg/kg PO, 1 h post dose, data not shown) was 1305 ± 113 ng/mL. The compound also gave a Kp in data set [7] (C57bl/6, mouse, brain and plasma) of 0.4 to 0.42. Moreover, the bioavailability in data set [7] (C57bl/6, mouse, in vivo, po) was 70 to 80%. This compound displayed a half-life in data set [7] (C57bl/6, mouse, plasma and brain) of 8 to 10 h.
